# In US12534469B2 (CHILDREN'S HOSPITAL MEDICAL CENTER, priority 2020, dated 2026):
# Numbering of substitutions follows the chain as printed.
# How the values were obtained:
# [1] = molecular target: T1, FLT3 (Homo sapiens, UniProt P36888); assay: DiscoverX KINOMEscan competition binding assay, FLT3
# T1 construct: using full-length kinases in the presence of cellular concentrations of ATP in live, uncompromised cells; assay by Reaction Biology; host or cells: HEK-293 (ATCC), transient transfection
# T1 sequence (P36888 27-993): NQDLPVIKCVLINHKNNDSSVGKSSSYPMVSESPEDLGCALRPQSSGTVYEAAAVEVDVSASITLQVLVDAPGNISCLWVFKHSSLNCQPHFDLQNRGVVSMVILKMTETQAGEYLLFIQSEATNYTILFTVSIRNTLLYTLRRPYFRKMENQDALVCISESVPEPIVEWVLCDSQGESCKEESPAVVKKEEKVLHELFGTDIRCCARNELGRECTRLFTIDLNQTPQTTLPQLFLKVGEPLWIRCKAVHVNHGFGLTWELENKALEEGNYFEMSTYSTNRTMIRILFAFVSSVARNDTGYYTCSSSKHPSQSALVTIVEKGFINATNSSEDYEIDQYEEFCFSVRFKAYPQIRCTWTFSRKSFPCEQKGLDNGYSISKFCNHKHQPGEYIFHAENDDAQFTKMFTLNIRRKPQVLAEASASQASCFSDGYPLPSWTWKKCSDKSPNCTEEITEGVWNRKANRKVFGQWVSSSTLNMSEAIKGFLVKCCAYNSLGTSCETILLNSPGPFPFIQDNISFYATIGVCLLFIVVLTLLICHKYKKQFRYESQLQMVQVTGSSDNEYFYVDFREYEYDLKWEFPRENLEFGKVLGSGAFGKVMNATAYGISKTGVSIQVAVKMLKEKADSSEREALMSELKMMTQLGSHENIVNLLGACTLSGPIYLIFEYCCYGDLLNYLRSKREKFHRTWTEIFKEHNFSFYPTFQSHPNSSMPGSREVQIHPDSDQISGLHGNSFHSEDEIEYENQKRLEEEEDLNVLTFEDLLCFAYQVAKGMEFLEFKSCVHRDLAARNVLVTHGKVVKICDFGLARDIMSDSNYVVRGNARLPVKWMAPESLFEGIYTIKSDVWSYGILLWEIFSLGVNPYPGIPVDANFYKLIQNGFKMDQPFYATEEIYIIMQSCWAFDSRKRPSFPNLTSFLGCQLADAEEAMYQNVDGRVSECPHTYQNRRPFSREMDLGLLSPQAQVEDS
# From the text: (§1) Kinase binding data were obtained for various exemplary compounds prepared according to Examples 1-25 using the DiscoverX KINOMEscan® active site-directed competition binding site-directed assay protocol described below. […] As a result, the data report thermodynamic interaction affinities (Kd values), rather than IC50 values that are dependent on ATP concentrations. The assay uses a DNA-tagged version of the protein kinase, and an immobilized ligand bound to a solid support. Compounds that directly or indirectly prevent kinase binding to the immobilized ligand reduce the amount of kinase captured on the solid support, which is detected using an ultra-sensitive qPCR method. Affinity constants reported from the assay have been reported to be independent of the immobilized ligand used that is coupled to the solid support (See supplemental information in Fabian, M. A. et. al., (2005) Nat. Biotechnol. 23, 329-336; Wodicka, L. M. et. al., (2010) Chem. Biol. 17, 1241-1249.)
# (§2) Kinase-tagged T7 phage strains were prepared in an E. coli host derived from the BL21 strain. E. coli were grown to log-phase and infected with T7 phage and incubated with shaking at 32° C. until lysis. The lysates were centrifuged and filtered to remove cell debris. The remaining kinases were produced in HEK-293 cells and subsequently tagged with DNA for qPCR detection. […] The liganded beads were blocked with excess biotin and washed with blocking buffer (SeaBlock (Pierce), 1% BSA, 0.05% Tween 20, 1 mM DTT) to remove unbound ligand and to reduce non-specific binding. […] Test compounds were prepared as 111× stocks in 100% DMSO. Kds were determined using an 11-point 3-fold compound dilution series with three DMSO control points. […] The compounds were then diluted directly into the assays such that the final concentration of DMSO was 0.9%. All reactions were performed in polypropylene 384-well plates. Each was a final volume of 0.02 mL. […] The kinase concentration in the eluates was measured by qPCR.
# (§3) Binding constants (Kds) were calculated with a standard dose-response curve using the Hill equation. […]
# [2] = molecular target: T2, FLT3 D835V (Homo sapiens, UniProt P36888, D835V); assay: DiscoverX KINOMEscan competition binding assay, FLT3 D835V
# T2 construct: purchased DiscoverX (KINOMEscan); host or cells: E. coli (T7 phage) or HEK-293
# T2 sequence (P36888 27-993 D835V): T1 sequence (P36888 27-993) with D809V
# From the text: as §1, §2, §3
Kd [1] [nM],Kd [2] [nM],SMILES
0.31,0.12,"COc1cc2ncc(-c3cccc(N[C@H]4CNC[C@@H]4F)n3)n2nc1C1CC1 [Compound 96, 6-(6-cyclopropyl-7-methoxyimidazo[1,2-b]pyridazin-3-yl)-N-((3S,4S)-4-fluoropyrrolidin-3-yl)pyridin-2-amine]"
0.19,0.067,"COc1cc2ncc(-c3cccc(N[C@@H]4CCNC4)n3)n2nc1C1CC1 [Compound 97, (R)-6-(6-cyclopropyl-7-methoxyimidazo[1,2-b]pyridazin-3-yl)-N-(pyrrolidin-3-yl)pyridin-2-amine]"
0.13,0.11,"COc1cc2ncc(-c3cccc(N[C@H]4CNCC[C@@H]4F)n3)n2nc1C1CC1 [Compound 102, 6-(6-cyclopropyl-7-methoxyimidazo[1,2-b]pyridazin-3-yl)-N-((3S,4S)-4-fluoropiperidin-3-yl)pyridin-2-amine]"
